A word on the IC50: it is the concentration needed to halve the response being measured. Higher therefore signals a need for much substance.

In experiment [1] the target is T1, FLT3 (Homo sapiens, UniProt P36888).
T1 sequence (P36888 27-993): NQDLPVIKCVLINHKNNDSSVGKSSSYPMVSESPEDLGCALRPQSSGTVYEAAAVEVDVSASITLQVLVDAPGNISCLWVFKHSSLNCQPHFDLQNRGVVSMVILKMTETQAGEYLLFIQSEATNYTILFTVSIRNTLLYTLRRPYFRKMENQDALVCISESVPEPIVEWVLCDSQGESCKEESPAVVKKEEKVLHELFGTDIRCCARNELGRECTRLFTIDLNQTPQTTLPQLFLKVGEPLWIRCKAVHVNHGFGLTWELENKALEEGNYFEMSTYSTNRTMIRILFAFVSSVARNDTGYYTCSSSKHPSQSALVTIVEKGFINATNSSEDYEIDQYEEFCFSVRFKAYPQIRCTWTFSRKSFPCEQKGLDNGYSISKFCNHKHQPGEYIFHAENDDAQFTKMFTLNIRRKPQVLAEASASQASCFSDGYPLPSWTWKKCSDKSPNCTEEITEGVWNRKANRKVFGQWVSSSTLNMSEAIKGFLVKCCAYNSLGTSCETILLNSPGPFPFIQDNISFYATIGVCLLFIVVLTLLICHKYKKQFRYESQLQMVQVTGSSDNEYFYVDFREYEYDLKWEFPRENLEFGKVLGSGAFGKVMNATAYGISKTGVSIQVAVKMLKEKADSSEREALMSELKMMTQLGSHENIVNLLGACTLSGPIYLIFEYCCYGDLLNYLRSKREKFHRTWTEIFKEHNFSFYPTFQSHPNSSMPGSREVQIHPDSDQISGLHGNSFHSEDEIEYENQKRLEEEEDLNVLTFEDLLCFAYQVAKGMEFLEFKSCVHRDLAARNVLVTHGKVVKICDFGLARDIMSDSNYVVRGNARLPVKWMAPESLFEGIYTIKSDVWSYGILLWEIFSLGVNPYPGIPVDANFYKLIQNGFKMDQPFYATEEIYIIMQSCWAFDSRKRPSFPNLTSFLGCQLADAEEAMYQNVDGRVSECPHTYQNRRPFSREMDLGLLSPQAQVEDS
Kind of experiment: RBC HotSpot Kinase Assay, FLT3. The experiment is classed as biochemical. Set-up: purchased RBC (Reaction Biology) HotSpot assay. The conditions noted are these: HotSpot functional assay, isolated kinase enzyme, 33P-ATP. An outline of the steps:
(§1)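 Isolated kinases, possibly truncated or lacking regulatory receptor regions, were preincubated with compound for 20 min at room temp in 20 mM Hepes pH 7.5, 10 mM MgCl2, 1 mM EGTA, 2 mM DTT, 1% DMSO. Reactions were started with ^33P-ATP and run 2 h at room temperature; activity was read by P81 filter binding.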

The test system of experiment [2] is MOLM14 D835Y cells. Kind of experiment: MOLM14 D835Y cell viability assay (Cell Titer Glo). It counts as cell-based. The protocol: The cell line has activated FLT3 receptors which carry additional resistance mutations in the kinase domain (D835Y).
MOLM14 D835Y cells were grown in RPMI-1640 media supplemented with 20% fetal bovine serum (FBS). […] After cell addition, 23 nL of test compound were transferred into individual wells (22 doses tested for each test compound, with a 1:2 dilution series starting at 10 μM) via a 1536 pin-tool. Bortezomib (final concentration 2.3 μM) was used as a positive control for cell cytotoxicity.

Experiment [3] addresses T2, IRAK4 (Homo sapiens, UniProt Q9NWZ3).
T2 sequence (Q9NWZ3 1-460): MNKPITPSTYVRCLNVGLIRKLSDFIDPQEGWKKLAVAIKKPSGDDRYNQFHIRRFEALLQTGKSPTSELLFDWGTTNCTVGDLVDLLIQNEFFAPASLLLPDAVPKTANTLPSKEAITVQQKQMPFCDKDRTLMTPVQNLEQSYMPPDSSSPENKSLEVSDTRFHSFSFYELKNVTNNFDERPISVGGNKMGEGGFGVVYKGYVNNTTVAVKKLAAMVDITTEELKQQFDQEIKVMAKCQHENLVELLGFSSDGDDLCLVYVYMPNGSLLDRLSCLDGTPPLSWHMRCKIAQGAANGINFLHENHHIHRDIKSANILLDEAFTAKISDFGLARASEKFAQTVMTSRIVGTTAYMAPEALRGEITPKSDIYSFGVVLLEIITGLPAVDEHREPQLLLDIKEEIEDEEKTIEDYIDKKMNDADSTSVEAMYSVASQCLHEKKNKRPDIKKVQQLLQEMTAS
Kind of experiment: RBC HotSpot Kinase Assay, IRAK4. It counts as biochemical. Set-up: purchased RBC (Reaction Biology) HotSpot assay. To be noted: HotSpot functional assay, isolated kinase enzyme, 33P-ATP. An outline of the steps: as §1

The target in experiment [4] is T3, IRAK1 (Homo sapiens, UniProt P51617).
T3 construct: purchased RBC (Reaction Biology) HotSpot assay
Put plainly: RBC HotSpot Kinase Assay, IRAK1. It counts as biochemical. To be noted: HotSpot functional assay, isolated kinase enzyme, 33P-ATP. The method, boiled down: as §1

T3 sequence (P51617 whole entry): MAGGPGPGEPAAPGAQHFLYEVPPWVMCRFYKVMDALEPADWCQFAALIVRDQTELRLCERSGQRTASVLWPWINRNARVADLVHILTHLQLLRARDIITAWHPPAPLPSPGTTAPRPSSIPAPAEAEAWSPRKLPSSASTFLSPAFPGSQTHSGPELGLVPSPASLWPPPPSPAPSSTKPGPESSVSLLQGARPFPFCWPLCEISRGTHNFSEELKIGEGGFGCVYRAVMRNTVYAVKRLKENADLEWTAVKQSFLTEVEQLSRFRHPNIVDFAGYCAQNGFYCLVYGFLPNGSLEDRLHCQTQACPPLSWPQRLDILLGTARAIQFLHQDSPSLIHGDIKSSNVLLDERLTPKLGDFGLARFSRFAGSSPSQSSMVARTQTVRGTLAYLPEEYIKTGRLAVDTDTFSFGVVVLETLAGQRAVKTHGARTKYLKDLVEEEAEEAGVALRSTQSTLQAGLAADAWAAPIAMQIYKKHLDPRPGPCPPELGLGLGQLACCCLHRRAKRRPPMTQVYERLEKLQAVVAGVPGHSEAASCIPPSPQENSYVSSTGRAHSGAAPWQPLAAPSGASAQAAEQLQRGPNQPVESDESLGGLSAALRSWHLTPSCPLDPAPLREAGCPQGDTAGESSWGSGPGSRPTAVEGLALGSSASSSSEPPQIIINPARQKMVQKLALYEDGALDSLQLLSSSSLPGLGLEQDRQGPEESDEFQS

As to `COc1cc2ncc(-c3nc(N[C@H]4CNCC[C@@H]4F)c(F)cc3F)n2nc1C(C)(O)C(F)(F)F` (single isomer, unassigned) [Compound 76a], the half-inhibitory concentration (IC50) in experiment [1] is under 0.0005 µM; in experiment [2] (48 hours) it was 0.081 µM; in experiment [3], 0.078 µM; in experiment [4], 0.58 µM.
Turning to `COc1cc2ncc(-c3nc(N[C@H]4CNC[C@@H]4F)c(F)cc3F)n2nc1C(C)(O)C(F)(F)F` (single isomer, unassigned) [Compound 78a], the IC50 was found to be 0.001 µM in experiment [1], 0.229 µM in experiment [2] (48 hours), 0.092 µM in experiment [3] and 0.983 µM in experiment [4].
On to `COc1cc2ncc(-c3nc(N[C@@H]4CCCNC4)c(F)cc3F)n2nc1C(C)(O)C(F)(F)F` (single isomer, unassigned) [Compound 79a], for which the IC50 in experiment [1] is under 0.0005 µM; in experiment [2] (48 hours) it was 0.081 µM; in experiment [3] it was 0.521 µM; in experiment [4], 0.822 µM.
As to `COc1cc2ncc(-c3ccc(F)c(N[C@H]4CNCC[C@@H]4F)n3)n2nc1C(C)(C)O` [Compound 1a, 2-(3-(5-fluoro-6-(((3S,4S)-4-fluoropiperidin-3-yl)amino)pyridin-2-yl)-7-methoxyimidazo[1,2-b]pyridazin-6-yl)propan-2-ol], the IC50 came out at 0.003 µM in experiment [1]; 0.182 µM in experiment [2] (Homo sapiens, MOLM-14, 48 h); 0.158 µM in experiment [3]; 2.34 µM in experiment [4].
As to `COc1cc2ncc(-c3nc(N[C@H]4CNC[C@@H]4F)ccc3F)n2nc1C(C)(C)O` [Compound 2a, 2-(3-(3-fluoro-6-(((3S,4S)-4-fluoropyrrolidin-3-yl)amino)pyridin-2-yl)-7-methoxyimidazo[1,2-b]pyridazin-6-yl)propan-2-ol], the IC50 in experiment [1] was determined as 0.0008 µM; in experiment [2] (Homo sapiens, MOLM-14, 48 h), 0.129 µM; in experiment [3] it was 0.024 µM; in experiment [4], 0.61 µM.
With `COc1cc2ncc(-c3nc(N[C@@H]4CCCNC4)ccc3F)n2nc1C(C)(C)O` [Compound 3a], the half-inhibitory concentration (IC50) in experiment [1] is 0.001 µM; in experiment [2] (Homo sapiens, MOLM-14, 48 h), 0.046 µM; in experiment [3], 0.148 µM; in experiment [4], 0.437 µM.
For `COc1cc2ncc(-c3nc(N[C@H]4CNCC[C@@H]4F)ccc3F)n2nc1C(C)(C)O` [Compound 4a, 2-(3-(3-fluoro-6-(((3S,4S)-4-fluoropiperidin-3-yl)amino)pyridin-2-yl)-7-methoxyimidazo[1,2-b]pyridazin-6-yl)propan-2-ol] the same measures were under 0.0005 µM, 0.029 µM, 0.027 µM and 0.221 µM.
As to `COc1cc2ncc(-c3cc(Oc4ccccc4)cc(N[C@@H]4CCCNC4)n3)n2nc1C1CC1` [Compound 59a, (R)-6-(6-cyclopropyl-7-methoxyimidazo[1,2-b]pyridazin-3-yl)-4-phenoxy-N-(piperidin-3-yl)pyridin-2-amine], the values for the IC50 in experiment [1], in experiment [3] and in experiment [4] were 0.096 µM, over 10 µM and over 10 µM, respectively.
Regarding `COc1cc2ncc(-c3cc(Oc4ccccc4)cc(N[C@H]4CNC[C@@H]4F)n3)n2nc1C1CC1` [Compound 60a, 6-(6-cyclopropyl-7-methoxyimidazo[1,2-b]pyridazin-3-yl)-N-((3S,4S)-4-fluoropyrrolidin-3-yl)-4-phenoxypyridin-2-amine], the IC50 in experiment [1] was 0.277 µM; in experiment [3], over 10 µM; in experiment [4] it was over 10 µM.
Take `COc1cc2ncc(-c3cc(Oc4ccccc4)cc(N[C@H]4CNCC[C@@H]4F)n3)n2nc1C1CC1` [Compound 61a, 6-(6-cyclopropyl-7-methoxyimidazo[1,2-b]pyridazin-3-yl)-N-((3S,4S)-4-fluoropiperidin-3-yl)-4-phenoxypyridin-2-amine]: the IC50 is 0.094 µM in experiment [1], over 10 µM in experiment [3] and over 10 µM in experiment [4].
In the case of `COc1cc2ncc(-c3nc(N[C@@H]4CCCNC4)c(C)cc3C)n2nc1C1CC1` [Compound 62a], the concentration for half-maximal inhibition (IC50) in experiment [1] was 1.42 µM; in experiment [3], over 10 µM; in experiment [4] it was over 10 µM.
For the molecule `COc1cc2ncc(-c3nc(N[C@H]4CNC[C@@H]4F)c(C)cc3C)n2nc1C1CC1` [Compound 63a, 6-(6-cyclopropyl-7-methoxyimidazo[1,2-b]pyridazin-3-yl)-N-((3S,4S)-4-fluoropyrrolidin-3-yl)-3,5-dimethylpyridin-2-amine], the IC50 in experiment [1] is 0.377 µM; in experiment [3], over 10 µM; in experiment [4], over 10 µM.
As to `COc1cc2ncc(-c3nc(N[C@H]4CNCC[C@@H]4F)c(C)cc3C)n2nc1C1CC1` [Compound 64a, 6-(6-cyclopropyl-7-methoxyimidazo[1,2-b]pyridazin-3-yl)-N-((3S,4S)-4-fluoropiperidin-3-yl)-3,5-dimethylpyridin-2-amine], the IC50 in experiment [1] is 0.821 µM; in experiment [3] it was over 10 µM; in experiment [4], over 10 µM.
Regarding `COc1cc2ncc(-c3nc(N[C@H]4CNC[C@@H]4F)c(F)cc3F)n2nc1C12CC(C1)C2` [Compound 66a, 6-(6-(bicyclo[1.1.1]pentan-1-yl)-7-methoxyimidazo[1,2-b]pyridazin-3-yl)-3,5-difluoro-N-((3S,4S)-4-fluoropyrrolidin-3-yl)pyridin-2-amine], the IC50 is under 0.0005 µM in experiment [1], 0.002 µM in experiment [3] and 0.021 µM in experiment [4].
As to `COc1cc2ncc(-c3nc(N[C@@H]4CCCNC4)c(F)cc3F)n2nc1N1CCCS1(=O)=O` [Compound 68a, (R)-2-(3-(3,5-difluoro-6-(piperidin-3-ylamino)pyridin-2-yl)-7-methoxyimidazo[1,2-b]pyridazin-6-yl)isothiazolidine 1,1-dioxide], the results for the IC50 in experiment [1], in experiment [3] and in experiment [4] were under 0.0005 µM, 0.007 µM and 0.019 µM, respectively.
Turning to `COc1cc2ncc(-c3nc(N[C@H]4CNC[C@@H]4F)c(F)cc3F)n2nc1N1CCCS1(=O)=O` [Compound 69a, 2-(3-(3,5-difluoro-6-(((3S,4S)-4-fluoropyrrolidin-3-yl)amino)pyridin-2-yl)-7-methoxyimidazo[1,2-b]pyridazin-6-yl)isothiazolidine 1,1-dioxide], the values for the IC50 in experiment [1], in experiment [3] and in experiment [4] were under 0.0005 µM, 0.004 µM and 0.125 µM, respectively.
Take `COc1cc2ncc(-c3nc(N[C@H]4CNCC[C@@H]4F)c(F)cc3F)n2nc1N1CCCS1(=O)=O` [Compound 70a, 2-(3-(3,5-difluoro-6-(((3S,4S)-4-fluoropiperidin-3-yl)amino)pyridin-2-yl)-7-methoxyimidazo[1,2-b]pyridazin-6-yl)isothiazolidine 1,1-dioxide]: the IC50 is under 0.0005 µM in experiment [1], 0.01 µM in experiment [3] and 0.06 µM in experiment [4].
In the case of `COc1cc2ncc(-c3nc(N[C@@H]4CCCNC4)c(F)cc3F)n2nc1C1COC1` [Compound 72a, (R)-3,5-difluoro-6-(7-methoxy-6-(oxetan-3-yl)imidazo[1,2-b]pyridazin-3-yl)-N-(piperidin-3-yl)pyridin-2-amine], the results for the IC50 in experiment [1], in experiment [3] and in experiment [4] were under 0.0005 µM, 0.028 µM and 0.498 µM, respectively.

For the origin of these results see patent US20250368648A1, “MULTI-CYCLIC IRAK AND FLT3 INHIBITING COMPOUNDS AND USES THEREOF” (CHILDREN'S HOSPITAL MEDICAL CENTER, priority 2022, published 2025).
